Experimental data: patent publication US10167280B2, “Substituted oxopyridine derivatives” (BAYER PHARMA AKTIENGESELLSCHAFT, priority 2014, dated 2019)

How the values were obtained:
human factor XIa = human factor XIa (Homo sapiens (Human), UniProt P03951); assay: Measurement of FXIa inhibition (fluorogenic peptide substrate Boc-Glu(OBzl)-Ala-Arg-AMC); assay type: biochemical; settings: Table A, 30 min at 22° C., fluorescence
Description: (§1) The factor XIa inhibition of the substances according to the invention is determined using a biochemical test system which utilizes the reaction of a peptidic factor XIa substrate to determine the enzymatic activity of human factor XIa. Here, factor XIa cleaves from the peptic factor XIa substrate the C-terminal aminomethylcoumarin (AMC), the fluorescence of which is measured. The determinations are carried out in microtitre plates.
1 μl of the diluted substance solutions is placed into each of the wells of white microtitre plates from Greiner (384 wells). […] After […] of incubation, the enzyme reaction is started by addition of 20 μl of the factor XIa substrate Boc-Glu(OBzl)-Ala-Arg-AMC dissolved in assay buffer (10 μM in assay buffer) from Bachem, the mixture is incubated at room temperature (22° C.) for 30 min and fluorescence is then measured (excitation: 360 nm, emission: 460 nm). The measured emissions of the test batches with test substance are compared to those of control batches without test substance (only dimethyl sulphoxide instead of test substance in dimethyl sulphoxide), and IC50 values are calculated from the concentration/activity relationships.

human plasma kallikrein = human plasma kallikrein (Homo sapiens (Human), UniProt P03952); assay: Determination of the plasma kallikrein activity (fluorogenic peptide substrate H-Pro-Phe-Arg-AMC); assay type: biochemical; settings: Table B; plasma kallikrein inhibition, 30 min at 22° C., fluorescence
Sequence of human plasma kallikrein (P03952 391-638): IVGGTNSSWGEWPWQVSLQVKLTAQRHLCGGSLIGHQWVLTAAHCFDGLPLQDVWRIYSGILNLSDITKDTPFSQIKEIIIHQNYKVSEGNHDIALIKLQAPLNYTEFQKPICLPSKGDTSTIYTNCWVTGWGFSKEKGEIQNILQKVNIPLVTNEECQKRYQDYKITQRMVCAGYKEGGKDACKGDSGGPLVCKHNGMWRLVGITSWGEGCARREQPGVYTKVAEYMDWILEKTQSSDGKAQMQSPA
Sequence of human plasma kallikrein (P03952 20-390 partner): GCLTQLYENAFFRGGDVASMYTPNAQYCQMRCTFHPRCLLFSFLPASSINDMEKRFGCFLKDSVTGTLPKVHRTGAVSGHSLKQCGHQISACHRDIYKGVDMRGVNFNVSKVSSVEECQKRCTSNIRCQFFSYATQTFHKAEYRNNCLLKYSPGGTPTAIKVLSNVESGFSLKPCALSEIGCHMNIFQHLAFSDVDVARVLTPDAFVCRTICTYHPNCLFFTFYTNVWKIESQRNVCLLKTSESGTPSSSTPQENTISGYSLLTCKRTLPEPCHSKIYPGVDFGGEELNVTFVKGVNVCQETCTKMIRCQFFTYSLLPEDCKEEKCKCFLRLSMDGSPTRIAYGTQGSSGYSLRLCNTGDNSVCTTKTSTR
Description: as §1, with “To determine the plasma kallikrein” for “The factor XIa”, “invention,” for “invention is determined using”, “system is used” for “system”, “plasma kallikrein” for “factor XIa”, “plasma kallikrein.” for “factor XIa.”
1 μl of the diluted substance solutions is placed into each of the wells of white microtitre plates from Greiner (384 wells). 20 μl of assay buffer (50 mM Tris/HCl pH 7.4; 100 mM sodium chloride solution; 5 mM of calcium chloride solution; 0.1% of bovine serum albumin) and 20 μl of plasma kallikrein from Kordia (0.6 nM in assay buffer) are then added successively. After 15 min of incubation, the enzyme reaction is started by addition of 20 μl of the substrate H-Pro-Phe-Arg-AMC dissolved in assay buffer (10 μM in assay buffer) from Bachem, the mixture is incubated at room temperature (22° C.) for 30 min and fluorescence is then measured (excitation: 360 nm, emission: 460 nm). The measured emissions of the test batches with test substance are compared to those of control batches without test substance (only dimethyl sulphoxide instead of test substance in dimethyl sulphoxide), and IC50 values are calculated from the concentration/activity relationships.

Sequence of human factor XIa (P03951 388-625): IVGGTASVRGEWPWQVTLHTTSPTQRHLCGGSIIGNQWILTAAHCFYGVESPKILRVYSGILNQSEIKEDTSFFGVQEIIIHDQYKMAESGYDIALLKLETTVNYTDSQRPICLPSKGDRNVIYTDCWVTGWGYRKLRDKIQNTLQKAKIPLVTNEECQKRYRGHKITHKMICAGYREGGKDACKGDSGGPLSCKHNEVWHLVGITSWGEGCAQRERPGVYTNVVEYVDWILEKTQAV
Sequence of human factor XIa (P03951 19-387 partner): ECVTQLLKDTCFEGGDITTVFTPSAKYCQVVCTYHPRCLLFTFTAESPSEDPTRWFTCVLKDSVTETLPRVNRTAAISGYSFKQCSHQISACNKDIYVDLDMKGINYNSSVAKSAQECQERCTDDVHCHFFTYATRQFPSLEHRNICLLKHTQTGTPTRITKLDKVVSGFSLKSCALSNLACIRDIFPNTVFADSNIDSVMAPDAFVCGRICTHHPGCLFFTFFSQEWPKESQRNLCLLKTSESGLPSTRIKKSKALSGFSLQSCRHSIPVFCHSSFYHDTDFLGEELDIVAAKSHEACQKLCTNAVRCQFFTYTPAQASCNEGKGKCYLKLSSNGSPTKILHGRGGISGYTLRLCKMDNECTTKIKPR

Structure (SMILES)	IC50 (human factor XIa) [nM]	IC50 (human plasma kallikrein) [nM]
COc1cn(C(Cc2cocn2)C(=O)Nc2ccc(C(N)=O)nc2)c(=O)cc1-c1cc(Cl)ccc1C#N (centres unmarked) [Example 11]	48	52
COCCC(C(=O)Nc1ccc(C(N)=O)nc1)n1cc(Cl)c(-c2cc(Cl)ccc2C#N)cc1=O (centres unmarked) [Example 3]	29	100
CNC(=O)c1ccc(NC(=O)C(Cc2ccn(C)n2)n2cc(OC)c(-c3cc(F)ccc3C#N)cc2=O)cn1 (racemic) [Example 49, 5-({2-[4-(2-Cyano-5-fluorophenyl)-5-methoxy-2-oxopyridin-1(2H)-yl]-3-(1-methyl-1H-pyrazol-3-yl)propanoyl}amino)-N-methylpyridine-2-carboxamide (racemate)]	160	130
N#Cc1ccc(Cl)cc1-c1cc(=O)n(C(Cc2cnco2)C(=O)Nc2ccc(C(N)=O)nc2)cc1Cl (centres unmarked) [Example 16]	32	89
CNC(=O)c1ccc(NC(=O)C(Cc2ccn(C)n2)n2cc(C3CC3)c(-c3cc(Cl)ccc3C#N)cc2=O)cn1 (racemic) [Example 51, 5-({2-[4-(5-Chloro-2-cyanophenyl)-5-cyclopropyl-2-oxopyridin-1(2H)-yl]-3-(1-methyl-1H-pyrazol-3-yl)propanoyl}amino)-N-methylpyridine-2-carboxamide (racemate)]	200	80
N#Cc1ccc(Cl)cc1-c1cc(=O)n(C(Cc2ccccn2)C(=O)Nc2ccc(C(N)=O)nc2)cc1OC(F)F (centres unmarked) [Example 7]	160	490
COc1cn(C(Cc2ccccn2)C(=O)Nc2ccc(C(N)=O)nc2)c(=O)cc1-c1cc(Cl)ccc1F (centres unmarked) [Example 13]	220	250
COc1cn(C(Cc2cc(C)no2)C(=O)Nc2ccc(C(N)=O)nc2)c(=O)cc1-c1cc(Cl)ccc1F (centres unmarked) [Example 14]	390	160
N#Cc1ccc(Cl)cc1-c1cc(=O)n(C(Cc2cnco2)C(=O)Nc2ccc(C(N)=O)nc2)cc1OC(F)F (centres unmarked) [Example 12]	210	640
N#Cc1ccc(Cl)cc1-c1cc(=O)n(C(Cc2cocn2)C(=O)Nc2ccc(C(N)=O)nc2)cc1Cl (centres unmarked) [Example 10]	210	470

Molecules with a lower IC50 (human factor XIa), results first:

IC50 (human factor XIa) [nM]	IC50 (human plasma kallikrein) [nM]	Structure (SMILES)
16	140	N#Cc1ccc(Cl)cc1-c1cc(=O)n(C(C[C@@H]2CCCCO2)C(=O)Nc2ccc(C(N)=O)nc2)cc1Cl (some centres unmarked) [Example 4]
11	6	COc1cn(C(Cc2cccnc2)C(=O)Nc2ccc(C(N)=O)nc2)c(=O)cc1-c1cc(Cl)ccc1C#N (centres unmarked) [Example 8]
20	22	CCC(C(=O)Nc1ccc(C(N)=O)nc1)n1cc(OC)c(-c2cc(Cl)ccc2C#N)cc1=O (centres unmarked) [Example 1]
12	120	CNC(=O)c1ccc(NC(=O)C(C[C@@H]2CCCCO2)n2cc(Cl)c(-c3cc(Cl)ccc3C#N)cc2=O)cn1 (some centres unmarked) [Example 5]
20	16	CCC(C(=O)Nc1ccc(C(=O)NC)nc1)n1cc(OC)c(-c2cc(Cl)ccc2C#N)cc1=O (centres unmarked) [Example 2]
23	53	CNC(=O)c1ccc(NC(=O)C(CCOC)n2cc(Cl)c(-c3cc(Cl)ccc3C#N)cc2=O)cn1 (centres unmarked) [Example 15]
